In patent US20230374034A1, “NOVEL BICYCLIC COMPOUNDS” (PRISM BIOLAB CO., LTD., priority 2020, published 2023) one finds inhibition data, which are given here for 22 molecules.

The first experiment relates to NICD (Notch intracellular domain) CSL-bla reporter in HeLa cells. Nature of the experiment: Notch assay (CellSensor T-REx NICD CSL-bla HeLa beta-lactamase reporter; Method 1 / Method 2). The class given is cell-based. The conditions noted are these: Homo sapiens, 10 μM compound, Method 1 (10× compound prepared in assay medium, added to plated cells), read-out: inhibiton (%) at 10 μM. Summed up:
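HeLa cells carrying doxycycline-inducible NICD and a CSL-driven beta-lactamase reporter, 10^3 cells/well, were treated with compound plus doxycycline for 16-20 h at 37 °C. CCF4-AM substrate was loaded for 4 h at room temperature; background-subtracted blue (460 nm)/green (530 nm) emission ratio taken per well.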
Regarding `CCCCCCOC(=O)N1O[C@@H](CC(C)C)C(=O)N2C1CN(Cc1ccccc1)C(=O)[C@@H]2Cc1ccc(O)cc1` (stereo partly drawn) [Compound I-5, (3S,6S)-hexyl 8-benzyl-6-(4-hydroxybenzyl)-3-isobutyl-4,7-dioxohexahydropyrazino[2,1-c][1,2,4]oxadiazine-1(6H)-carboxylate], the inhibition at 10 µM is 66.1%. On the same count and under the same terms, the result for `CCCC[C@H]1C(=O)N(CC2CCCCC2)CC2N(C(=O)OCc3cccc4ccccc34)O[C@@H](CC(N)=O)C(=O)N21` (stereo partly drawn) [Compound I-26, (3S,6S)-naphthalen-1-ylmethyl 3-(2-amino-2-oxoethyl)-6-butyl-8-(cyclohexylmethyl)-4,7-dioxohexahydropyrazino[2,1-c][1,2,4]oxadiazine-1(6H)-carboxylate] reads 68.4%; that for `CC(C)CCN1CC2N(C(=O)OCc3cccc4ccccc34)O[C@H](Cc3ccccc3)C(=O)N2[C@@H](Cc2ccc(O)cc2)C1=O` (stereo partly drawn) [Compound I-16, (3R,6S)-naphthalen-1-ylmethyl 3-benzyl-6-(4-hydroxybenzyl)-8-isopentyl-4,7-dioxohexahydropyrazino[2,1-c][1,2,4]oxadiazine-1(6H)-carboxylate], 79.8%; that for `CCCC[C@H]1C(=O)N(CCC(C)C)CC2N(C(=O)OCc3cccc4ccccc34)O[C@H](CC(N)=O)C(=O)N21` (stereo partly drawn) [Compound I-20, (3R,6S)-naphthalen-1-ylmethyl 3-(2-amino-2-oxoethyl)-6-butyl-8-isopentyl-4,7-dioxohexahydropyrazino[2,1-c][1,2,4]oxadiazine-1(6H)-carboxylate], 66.1%.

The experiment is the same for the next values; noted with them: Homo sapiens, 10 μM compound, Method 2 (40 nL of 1000× compound added to plate with Echo), read-out: inhibiton (%) at 10 μM.
For the molecule `CCCCCOC(=O)N1O[C@H](CC(C)C)C(=O)N2C1CN([C@@H](Cc1ccc(O)cc1)C(=O)NCCC(C)C)C(=O)[C@@H]2Cc1ccc(O)cc1` (stereo partly drawn) [Compound I-96, pentyl (3R,6S)-6-(4-hydroxybenzyl)-8-((S)-3-(4-hydroxyphenyl)-1-(isopentylamino)-1-oxopropan-2-yl)-3-isobutyl-4,7-dioxohexahydropyrazino[2,1-c][1,2,4]oxadiazine-1(6H)-carboxylate], the inhibition at 10 µM worked out at 56.3%. In the case of `CC(C)CCCNC(=O)[C@H](CC(C)C)N1CC2N(C(=O)OCCc3ccc(O)cc3)O[C@H](Cc3ccccc3)C(=O)N2[C@@H](Cc2ccc(O)cc2)C1=O` (stereo partly drawn) [Compound I-104, 4-hydroxyphenethyl (3R,6S)-3-benzyl-6-(4-hydroxybenzyl)-8-((S)-4-methyl-1-((4-methylpentyl)amino)-1-oxopentan-2-yl)-4,7-dioxohexahydropyrazino[2,1-c][1,2,4]oxadiazine-1(6H)-carboxylate], the inhibition at 10 µM came to 70.2%. For the molecule `CC(C)CCCNC(=O)[C@H](Cc1ccc(O)cc1)N1CC2N(C(=O)OCCc3ccccc3)O[C@H](CC(C)C)C(=O)N2[C@@H](Cc2ccc(O)cc2)C1=O` (stereo partly drawn) [Compound I-99, phenethyl (3R,6S)-6-(4-hydroxybenzyl)-8-((S)-3-(4-hydroxyphenyl)-1-((4-methylpentyl)amino)-1-oxopropan-2-yl)-3-isobutyl-4,7-dioxohexahydropyrazino [2,1-c][1,2,4]oxadiazine-1(6H)-carboxylate], the inhibition at 10 µM was determined as 58%. For `CC(C)C[C@H]1ON(C(=O)OCCc2ccccc2)C2CN([C@@H](Cc3ccc(O)cc3)C(=O)NCCc3ccccc3)C(=O)[C@H](Cc3ccc(O)cc3)N2C1=O` (stereo partly drawn) [Compound I-102, phenethyl (3R,6S)-6-(4-hydroxybenzyl)-8-((S)-3-(4-hydroxyphenyl)-1-oxo-1-(phenethylamino)propan-2-yl)-3-isobutyl-4,7-dioxohexahydropyrazino[2,1-c][1,2,4]oxadiazine-1(6H)-carboxylate], the inhibition at 10 µM is 67.3%. Turning to `CCCCCN1CC2N(C(=O)OCC3CCCCC3)O[C@H](Cc3ccccc3)C(=O)N2[C@@H](CCCCN)C1=O` (stereo partly drawn) [Compound I-28, (3R,6S)-cyclohexylmethyl 6-(4-aminobutyl)-3-benzyl-4,7-dioxo-8-pentylhexahydropyrazino [2,1-c][1,2,4]oxadiazine-1(6H)-carboxylate], the inhibition at 10 µM came out at 99.7%. As to `O=C1[C@H](CO)N2C(=O)[C@@H](Cc3ccc(O)cc3)ON(C(=O)OCc3ccccc3)C2CN1CCc1cccc2ccccc12` (stereo partly drawn) [Compound I-48, (3R,6S)-benzyl 3-(4-hydroxybenzyl)-6-(hydroxymethyl)-8-(2-(naphthalen-1-yl)ethyl)-4,7-dioxohexahydropyrazino[2,1-c][1,2,4]oxadiazine-1(6H)-carboxylate], the inhibition at 10 µM was 57.3%. Take `CC(C)CCNC(=O)[C@H](Cc1ccccc1)N1CC2N(C(=O)OCCc3ccccc3)O[C@H](CCC(N)=O)C(=O)N2[C@@H](Cc2ccccc2)C1=O` (stereo partly drawn) [Compound I-90, phenethyl (3R,6S)-3-(3-amino-3-oxopropyl)-6-benzyl-8-((S)-1-(isopentylamino)-1-oxo-3-phenylpropan-2-yl)-4,7-dioxohexahydropyrazino[2,1-c][1,2,4]oxadiazine-1(6H)-carboxylate]: the inhibition at 10 µM stood at 62.4%. Regarding `NC(=O)CC[C@H]1C(=O)N([C@@H](Cc2ccccc2)C(=O)NCCCc2ccccc2)CC2N(C(=O)OCCc3ccc(O)cc3)O[C@H](Cc3ccccc3)C(=O)N21` (stereo partly drawn) [Compound I-126, 4-hydroxyphenethyl (3R,6S)-6-(3-amino-3-oxopropyl)-3-benzyl-4,7-dioxo-8-((S)-1-oxo-3-phenyl-1-((3-phenylpropyl)amino)propan-2-yl)hexahydropyrazino [2,1-c][1,2,4]oxadiazine-1(6H)-carboxylate], the inhibition at 10 µM was found to be 67.2%. Regarding `CC(C)C[C@H]1ON(C(=O)OCc2ccccc2)[C@H]2CN(C3CCN(C)CC3)C(=O)[C@H](CCCCNCc3ccc4ccccc4n3)N2C1=O` [Compound I-145, benzyl (3R,6S,9aS)-3-isobutyl-8-(1-methylpiperidin-4-yl)-4,7-dioxo-6-(4-((quinolin-2-ylmethyl)amino)butyl) hexahydropyrazino[2,1-c][1,2,4]oxadiazine-1(6H)-carboxylate], the inhibition at 10 µM was determined as 89%.

For the molecule `CC(C)CCOC(=O)N1O[C@H](Cc2ccccc2)C(=O)N2C1CN([C@@H](Cc1ccccc1)C(=O)NCCCO)C(=O)[C@@H]2Cc1ccc(O)cc1` (stereo partly drawn) [Compound I-106, isopentyl (3R,6S)-3-benzyl-6-(4-hydroxybenzyl)-8-((S)-1-((3-hydroxypropyl)amino)-1-oxo-3-phenylpropan-2-yl)-4,7-dioxohexahydropyrazino[2,1-c][1,2,4]oxadiazine-1(6H)-carboxylate], the inhibition at 10 µM was 52%. In the case of `CC[C@H](C)CN1CC2N(C(=O)OCC3CCCCC3)O[C@H](CC(C)C)C(=O)N2[C@@H](CCCCN)C1=O` (stereo partly drawn) [Compound I-31, (3R,6S)-cyclohexylmethyl 6-(4-aminobutyl)-3-isobutyl-8-((S)-2-methylbutyl)-4,7-dioxohexahydropyrazino[2,1-c][1,2,4]oxadiazine-1(6H)-carboxylate], the inhibition at 10 µM was 67.1%. The same measure, in the same setting: the result for `O=C1[C@H](CO)N2C(=O)[C@@H](Cc3ccccc3)ON(C(=O)OCC3CCCCC3)C2CN1CCc1ccc(O)cc1` (stereo partly drawn) [Compound I-32, (3R,6S)-cyclohexylmethyl 3-benzyl-6-(hydroxymethyl)-8-(4-hydroxyphenethyl)-4,7-dioxohexahydropyrazino[2,1-c][1,2,4]oxadiazine-1(6H)-carboxylate] reads 59.8%; that for `CCCCOC(=O)N1O[C@H](CC2CCCCC2)C(=O)N2C1CN(CCC(C)C)C(=O)[C@@H]2CCCCN` (stereo partly drawn) [Compound I-35, (3R,6S)-butyl 6-(4-aminobutyl)-3-(cyclohexylmethyl)-8-isopentyl-4,7-dioxohexahydropyrazino[2,1-c][1,2,4]oxadiazine-1(6H)-carboxylate], 54%; that for `CC(C)C[C@H]1ON(C(=O)NCCC(c2ccccc2)c2ccccc2)C2CN(Cc3ccc4ccccc4c3)C(=O)[C@H](CCC(N)=O)N2C1=O` (stereo partly drawn) [Compound I-55, (3R,6S)-6-(3-amino-3-oxopropyl)-N-(3,3-diphenylpropyl)-3-isobutyl-8-(naphthalen-2-ylmethyl)-4,7-dioxohexahydropyrazino[2,1-c][1,2,4]oxadiazine-1(6H)-carboxamide], 58.7%. For `CC(C)NC(=O)N1O[C@H](CCCNC(=N)N)C(=O)N2C1CN(Cc1cccc3ccccc13)C(=O)[C@@H]2C` (stereo partly drawn) [Compound I-51, (3R,6S)-3-(3-guanidinopropyl)-N-isopropyl-6-methyl-8-(naphthalen-1-ylmethyl)-4,7-dioxohexahydropyrazino[2,1-c][1,2,4]oxadiazine-1(6H)-carboxamide], the inhibition at 10 µM worked out at 55.3%.

For the molecule `CCCC[C@@H](C(=O)NCCc1ccccc1)N1CC2N(C(=O)OCCc3ccc(O)cc3)O[C@H](Cc3ccc(O)cc3)C(=O)N2[C@@H](Cc2ccc(O)cc2)C1=O` (stereo partly drawn) [Compound I-119, 4-hydroxyphenethyl (3R,6S)-3,6-bis(4-hydroxybenzyl)-4,7-dioxo-8-((S)-1-oxo-1-(phenethylamino)hexan-2-yl)hexahydropyrazino[2,1-c][1,2,4]oxadiazine-1(6H)-carboxylate], the inhibition at 10 µM was found to be 55.7%. As for `CC(C)C[C@@H](C(=O)NCCc1ccccc1)N1CC2N(C(=O)OCCc3ccc(O)cc3)O[C@H](Cc3ccccc3)C(=O)N2[C@@H](C)C1=O` (stereo partly drawn) [Compound I-121, 4-hydroxyphenethyl (3R,6S)-3-benzyl-6-methyl-8-((S)-4-methyl-1-oxo-1-(phenethylamino)pentan-2-yl)-4,7-dioxohexahydropyrazino [2,1-c][1,2,4]oxadiazine-1(6H)-carboxylate], the inhibition at 10 µM amounted to 63.3%. Take `CC(C)C[C@H]1ON(CCCC2CCN(S(=O)(=O)c3ccc(C#N)cc3)CC2)C2CN(C3CCN(C)CC3)C(=O)[C@H](CC(C)C)N2C1=O` (stereo partly drawn) [Compound I-152, 4-((4-(3-((3R,6S)-3,6-diisobutyl-8-(1-methylpiperidin-4-yl)-4,7-dioxohexahydro-pyrazino[2,1-c][1,2,4]oxadiazin-1(6H)-yl)propyl)piperidin-1-yl)sulfonyl)benzonitrile]: the inhibition at 10 µM amounted to 93.5%.
